Reference: patent publication US6866861B1, “Method and composition for enhancing milk component concentrations” (Land O'Lakes, Inc., priority 1999, dated 2005)

What was measured:
cows [1] = assay: Abomasal infusion of glycerol in cows, different cows (Example 5); assay type: in vivo, cow; settings: for Fat / Lactose / Total Solids / True Protein: 150 g/cow/day abomasal, average of 3 cows
Procedure: To determine the weight percent total solids, wet basis, in a sample, the actual weight of total solids is determined by analyzing the sample in accordance with Method #925.23 (33.2.09) of Official Methods of Analysis, Association of Official Analytical Chemists (AOAC) (16th Ed., 1995). The weight percent total solids, wet basis, is then calculated by dividing the actual weight of total solids by the actual weight of the sample. The weight percent of true protein, wet basis, for a particular sample is calculated after first determining the wet basis weight percent of total Kjeldahl nitrogen and the wet basis weight percent of non-protein nitrogen in the sample. The wet basis weight percent of total Kjeldahl nitrogen in the sample is determined using the method referenced above. The wet basis weight percent of non-protein nitrogen (NPN) in the sample is determined in accordance with Method #991.21 (33.2.12) of Official Methods of Analysis, Association of Official Analytical Chemists (AOAC) (16th Ed., 1995). The weight percent of true protein, wet basis, in the sample is then determined by subtracting the wet basis weight percent of non-protein nitrogen in the sample from the wet basis weight percent of total Kjeldahl nitrogen in the sample. To determine the weight percent lactose, wet basis, in a liquid sample, the weight of the liquid sample is first determined. The actual weight of lactose in the liquid sample may then be determined using analysis kit number 176-303, that is available from Boehringer-Mannheim of Indianapolis, Ind. in accordance with the procedural instructions included with analysis kit number 176-303. The weight percent lactose, wet basis, in the liquid sample is then calculated by dividing the actual weight of lactose in the liquid sample by the actual weight of the liquid sample. To determine the weight percent fat, wet basis, in a sample, the actual weight of fat in the sample is determined in accordance with Method #974.09 (33.7.18) of Official Methods of Analysis, Association of Official Analytical Chemists (AOAC) (16th Ed., 1995). The weight percent fat, wet basis, is then calculated by dividing the actual weight of fat in the sample by the actual weight of the sample. In this example, glycerol was abomasally infused into three different cows at a rate of 150 grams per cow per day during a 14 day test period. The cows used in this Example were different from the cows used in Example 4. The rations provided to the cows during the period extending from day 0, prior to abomasal infusion of glycerol, through day 14 of the test period were the same. The only difference in feeding of the cows between day 0 and days 1-14 of the test period were that during days 1-14 the cows were abomasally infused with the dosage of 150 grams of glycerol per cow per day. The glycerol was not combined with any other materials prior to being abomasally infused into the cattle. Milk from the three cows was collected and analyzed prior to infusion (on day 0) and also was collected and analyzed on the third, seventh and fourteenth day of the test period. The results presented in Table 5 below for each milk component for each particular day are averages for the milk collected from the three different cows. The net change for the different milk components presented in Table 5 was calculated by averaging the results of days 3, 7 and 14 for a particular milk component and subtracting the results presented for day 0 for the particular milk component.

cows [2] = assay: Cyclic oral feeding of glycerol to cows, milk component concentrations (Example 8); assay type: in vivo, cow; settings: for Fat in Milk / Lactose in Milk / Total Solids in Milk / True Protein in Milk: oral
Procedure: To determine the weight percent total solids, wet basis, in a sample, the actual weight of total solids is determined by analyzing the sample in accordance with Method #925.23 (33.2.09) of Official Methods of Analysis, Association of Official Analytical Chemists (AOAC) (16th Ed., 1995). The weight percent total solids, wet basis, is then calculated by dividing the actual weight of total solids by the actual weight of the sample. The weight percent of true protein, wet basis, for a particular sample is calculated after first determining the wet basis weight percent of total Kjeldahl nitrogen and the wet basis weight percent of non-protein nitrogen in the sample. The wet basis weight percent of total Kjeldahl nitrogen in the sample is determined using the method referenced above. The wet basis weight percent of non-protein nitrogen (NPN) in the sample is determined in accordance with Method #991.21 (33.2.12) of Official Methods of Analysis, Association of Official Analytical Chemists (AOAC) (16th Ed., 1995). The weight percent of true protein, wet basis, in the sample is then determined by subtracting the wet basis weight percent of non-protein nitrogen in the sample from the wet basis weight percent of total Kjeldahl nitrogen in the sample. To determine the weight percent lactose, wet basis, in a liquid sample, the weight of the liquid sample is first determined. The actual weight of lactose in the liquid sample may then be determined using analysis kit number 176-303, that is available from Boehringer-Mannheim of Indianapolis, Ind. in accordance with the procedural instructions included with analysis kit number 176-303. The weight percent lactose, wet basis, in the liquid sample is then calculated by dividing the actual weight of lactose in the liquid sample by the actual weight of the liquid sample. To determine the weight percent fat, wet basis, in a sample, the actual weight of fat in the sample is determined in accordance with Method #974.09 (33.7.18) of Official Methods of Analysis, Association of Official Analytical Chemists (AOAC) (16th Ed., 1995). The weight percent fat, wet basis, is then calculated by dividing the actual weight of fat in the sample by the actual weight of the sample. In Example 8, glycerol was periodically fed orally to several test cows. Period 1 lasted from week 1-3, Period 2 lasted from week 4-6, and Period 3 lasted from week 7-9, with week 0 being the start of the test period in which no glycerol was provided. The results presented in Table 7 below are averages for particular components for milk produced from each of the test animals.

[3] = milk, average of days 3, 7, 14 minus day 0
[4] = Period 1 (Fed Glycerol), weeks 1-3
[5] = Period 3 (Fed Glycerol), weeks 7-9

## OCC(O)CO [glycerol]
Cows [1]; abomasal infusion, 14 day test period
  weight percent of fat, true protein, lactose, and total solids in the milk (conclusion in words): net increase
Cows [1]; milk, Day 3
  Fat: 3.39 Wt %
  Lactose: 4.86 Wt. %
  Total Solids: 12.04 Wt. %
  True Protein: 3.04 Wt. %
Cows [1]; milk, Day 7
  Fat: 3.25 Wt %
  Lactose: 5.19 Wt. %
  Total Solids: 12.17 Wt. %
  True Protein: 2.98 Wt. %
Cows [1]; milk, Day 14
  Fat: 3.32 Wt %
  Lactose: 4.87 Wt. %
  Total Solids: 11.99 Wt. %
  True Protein: 3.05 Wt. %
Cows [1]; [3]
  Fat, Net Change: +0.25 Wt %
  Lactose, Net Change: +0.08 Wt. %
  Total Solids, Net Change: +0.44 Wt. %
  True Protein, Net Change: +0.10 Wt. %
Cows [2]; cyclic oral feeding
  fat, lactose, or total solids content of the milk (conclusion in words): no increase or essentially no increase
Cows [2]; [4]
  Fat in Milk: 3.06 wt %
  Lactose in Milk: 4.97 wt %
  Total Solids in Milk: 11.38 wt %
  True Protein in Milk: 2.64 wt %
Cows [2]; [5]
  Fat in Milk: 3.22 wt %
  Lactose in Milk: 4.80 wt %
  Total Solids in Milk: 11.43 wt %
  True Protein in Milk: 2.69 wt %
